This is an account of results in PMC12024213, “Mechanism Insight of Cell Death Signaling by Thymol Derivatives on Trypanosomatidae Protozoan Parasites” (Antibiotics, 2025).

Data set [1] is described as follows: Cytotoxicity assay on murine macrophages (alamarBlue). It is filed as cell-based. As to conditions: mouse, mean ± SD. As to the method:
(§1) Cytotoxicity effect of the tested derivatives was conducted using macrophages of the murine cell line J774.A1 (American Type Culture Collection #TIB-67, city, country), as previously described. The cells were maintained in DMEM at 37 °C in a 5% CO2 humidified incubator. All the plates containing alamarBlue® were analyzed using a plate reader EnSpire Multimode Plate Reader® at excitation and emission wavelengths of 570 and 585 nm, respectively (PerkinElmer, ThermoFisher Scientific, Madrid, Spain). The IC50 (concentrations able to inhibit 50% of parasites), IC90 (concentrations able to inhibit 90% of parasites), and CC50 (concentration able to inhibit 50% of murine macrophages) values were determined for each compound by nonlinear regression using GraphPad software.
On the technique in general: The colour change of resazurin is a common sign of viable cells or microbes.

Data set [2] in a line: Intramacrophagic stage assay, T. cruzi in J774.A1 macrophages. It is filed as cell-based, Trypanosoma cruzi. To be noted: mouse; CC50 J774.A1 / IC50 intracellular T. cruzi; read-out: Selectivity Trypanosoma SI (CC50/IC50). As to the method:
(§2) Briefly, in a 96-well plate, macrophages from the J774.A1 cell line were seeded at a final concentration of 2 × 10^5 cells/mL in Dulbecco’s Modified Eagle Medium (DMEM) and maintained at 37 °C in a 5% CO2 atmosphere until fully adhesion. Cells were infected either with L. amazonensis promastigotes (at a ratio of 1:10) or epimastigotes of T. cruzi (at a ratio of 1:7) (macrophage: parasite) and incubated at 37 °C in 5% CO2 for 24 h for Leishmania and 48 h for Trypanosoma. After infection, plates were washed using DMEM to eliminate external parasites. Subsequently, infected macrophages were treated with different concentrations of active compounds for 24 h. Later, macrophages were lysed using 30 μL of medium, Schneider for Leishmania, and in liver infusion tryptose for Trypanosoma, containing 0.05% of sodium dodecyl sulfate (SDS) for 30 s under agitation. Afterwards, 170 μL of the appropriated medium was derivatives added to each well to give a final volume of 200 μL. Subsequently, 10% of alamarBlue® was added into each well and the plate was incubated at 26 °C for 72 h.
as §1

Data set [3] concerns intramacrophage T. cruzi. Described as above. It counts as cell-based, Trypanosoma cruzi. To be noted: Trypanosoma cruzi; intramacrophage stage in J774.A1, 24 h treatment; mean ± SD; read-out: T. cruzi Intracellular IC50. The protocol: as §2, §1
Data set [4] can be described thus: alamarBlue assay on T. cruzi epimastigotes. It is filed as cell-based, Trypanosoma cruzi. As to conditions: mouse; CC50 J774.A1 / IC50 T. cruzi epimastigotes; read-out: Selectivity Trypanosoma SI (CC50/IC50). The protocol: (§3) In a 96-well plate, a serial dilution of the tested derivatives was performed in liver infusion tryptose medium supplemented with 10% heat inactivated fetal bovine serum. Later, 100 µL of 5 × 10^5 cells/mL of epimastigotes was added to each well. Afterwards, 20 µL of alamarBlue® was added to each well, and the plate was maintained at 26 °C for 72 h.
as §1

The test system of data set [5] is T. cruzi epimastigotes. As to the kind of experiment: alamarBlue assay on T. cruzi epimastigotes. It counts as cell-based, Trypanosoma cruzi. As to conditions: mean ± SD, triplicates. The protocol: as §3, §1
Data set [6] concerns L. amazonensis. The arrangement: method as in PMID 28509873. To be noted: cited from earlier work.
The subject of data set [7] is L. chagasi. The arrangement: method as in PMID 20428679. As to conditions: cited from earlier work.
In data set [8] the test system is promastigote stage of L. major. The arrangement: method as in PMID 37595813. To be noted: cited from earlier work.
A short description of data set [9]: alamarBlue assay on L. amazonensis promastigotes. It is filed as cell-based, Leishmania amazonensis. To be noted: mouse; CC50 J774.A1 / IC50 L. amazonensis promastigotes; read-out: Selectivity Leishmania SI (CC50/IC50). The protocol: (§4) The assay was conducted using the alamarBlue® method as previously described. Briefly, promastigotes of L. amazonensis were grown at 26 °C in Schneider’s medium (US Biological, Life sciences) and supplemented with 10% heat-inactivated fetal bovine serum and 0.04% of sodium bicarbonate. In a 96-well microtiter plates (Corning™, Corning, NY, USA) a serial dilutions of thymol derivatives were first prepared, and later, 10^6 parasites/mL were added into each well. Subsequently, 10% of alamarBlue® was added to the entire plate. The plates were incubated for 72 h at 26 °C.
as §1

In data set [10] the test system is L. amazonensis promastigotes. Briefly: alamarBlue assay on L. amazonensis promastigotes. It counts as cell-based, Leishmania amazonensis. As to conditions: mean ± SD, triplicates. The protocol:
as §4, §1

The subject of data set [11] is promastigote stage of L. tropica. The arrangement: method as in PMID 37595813. As to conditions: cited from earlier work.
Data set [12] deals with L. infantum. The arrangement: method as in PMID 31151304. To be noted: cited from earlier work.
The subject of data set [13] is promastigote stage of L. infantum and L. chagasi. Details: method as in PMID 25281268. As to conditions: cited from earlier work.
The subject of data set [14] is amastigote stage of L. infantum and L. chagasi. The arrangement: method as in PMID 25281268. As to conditions: cited from earlier work.
Data set [15] is described as follows: Intramacrophagic stage assay, L. amazonensis in J774.A1 macrophages. It counts as cell-based, Leishmania amazonensis. To be noted: mouse; CC50 J774.A1 / IC50 intracellular L. amazonensis; read-out: Selectivity Leishmania SI (CC50/IC50). As to the method:
as §2, with “fully adhesion. […] After infection,” for “fully adhesion. Cells were infected either with L. amazonensis promastigotes (at a ratio of 1:10) or epimastigotes of T. cruzi (at a ratio of 1:7) (macrophage: parasite) and incubated at 37 °C in 5% CO2 for 24 h for Leishmania and 48 h for Trypanosoma. After infection,”, “72 h. Cytotoxicity effect of the tested derivatives was conducted using macrophages of the murine cell line J774.A1 (American Type Culture Collection #TIB-67, city, country), as previously described. The cells were maintained in DMEM at 37 °C in a 5% CO2 humidified incubator.” for “72 h.”

Data set [16] has as its system intramacrophage L. amazonensis. The data set is described as above. It is filed as cell-based, Leishmania amazonensis. To be noted: Leishmania amazonensis; intramacrophage stage in J774.A1, 24 h treatment; mean ± SD; read-out: L. amazonensis Intracellular IC50. The protocol: as §2, with “fully adhesion. […] After infection,” for “fully adhesion. Cells were infected either with L. amazonensis promastigotes (at a ratio of 1:10) or epimastigotes of T. cruzi (at a ratio of 1:7) (macrophage: parasite) and incubated at 37 °C in 5% CO2 for 24 h for Leishmania and 48 h for Trypanosoma. After infection,”, “72 h. Cytotoxicity effect of the tested derivatives was conducted using macrophages of the murine cell line J774.A1 (American Type Culture Collection #TIB-67, city, country), as previously described. The cells were maintained in DMEM at 37 °C in a 5% CO2 humidified incubator.” for “72 h.”

Setting [17] is: Trypanosoma cruzi, 72 h, epimastigotes, alamarBlue, 72 h at 26 °C, read-out: T. cruzi Epimastigote IC50.
Setting [18] is: Leishmania amazonensis, 72 h, promastigotes, alamarBlue, 72 h at 26 °C, read-out: L. amazonensis Promastigote IC50.
The mark [19] stands for this setting: epimastigotes, alamarBlue, 72 h at 26 °C, read-out: T. cruzi Epimastigote IC50.

In brackets after ≈: the same amount, converted by molar mass. Where two headings read alike, the source gives them in different places.

Consider `O=C(Cn1ccnc1[N+](=O)[O-])NCc1ccccc1` [B, Benznidazole, reference compound], for which, in [1] (J774.A1 macrophage cell line), the CC50 (in general, the concentration giving 50% cytotoxicity) worked out at 399.9 ± 1.4 µM. Also, the selectivity ratio in [2] came to 148; in data set [4], 58. Moreover, the figures for the IC50 in data set [3] and in data set [5] (setting [17]) were 2.7 ± 0.4 µM and 6.9 ± 0.8 µM, respectively.
With `Cc1ccc(C(C)C)c(O)c1` [Compound 1, thymol], the 50% cytotoxic concentration (CC50) in [1] (J774.A1 macrophage cell line) is > 300 µM. The “IC50 against L. amazonensis” value in [6] is 26.8 µg/mL (≈ 178 µM). Further, the “IC50 against L. chagasi” value in data set [7] is 28.0 µg/mL (≈ 186 µM). Further, the results for the selectivity ratio in data set [4] and in [9] were > 1.5 and > 0.9, respectively. Further, the concentration for half-maximal inhibition (IC50) (as a rule, the midpoint of a concentration-inhibition curve) in data set [5] (setting [17]) stood at 206 ± 2.8 µM; in data set [10] (setting [18]), 318 ± 21.4 µM. Further, the “activity against promastigote stage of L. major” value in data set [8] is “inactive”. Moreover, the “activity against promastigote stage of L. tropica” value in data set [11] was “inactive”. In [12], the “IC50 against L. infantum” value was 7.2 µg/mL (≈ 47.9 µM).
Consider `CC(=O)Oc1cc(C)ccc1C(C)C` [Derivative 2, thymyl acetate], for which the IC50 in data set [5] (setting [17]) and in [10] (setting [18]) was > 350 µM each time. Further, the “EC50 against promastigote stage” value in data set [13] is 9.07 µg/mL. Moreover, the “EC50 against amastigote stage” value in data set [14] was 10.95 µg/mL.
Consider `Cc1ccc(C(C)C)c(OC(=O)CCl)c1` [Derivative 3, thymyl chloroacetate], for which, in data set [1] (murine macrophages J774.A1), the CC50 was > 300 µM. For the same compound, the selectivity ratio in data set [4] is > 6.1; in [9] it was > 3.8. The IC50 in [5] (Trypanosoma cruzi, epimastigotes, alamarBlue, 72 h at 26 °C, read-out: T. cruzi Epimastigote IC50) worked out at 49.5 ± 3.2 µM; in data set [10] (Leishmania amazonensis, promastigotes, alamarBlue, 72 h at 26 °C, read-out: L. amazonensis Promastigote IC50) it was 78.8 ± 15.9 µM.
In data set [1] (J774.A1 macrophage cell line), `Cc1ccc(C(C)C)c(OCC(=O)OC(=O)CCl)c1` [Derivative 4, 2-thymyl-2′-(chloro)-acetic anhydride] had a CC50 of 120.9 ± 0.4 µM. For the same compound, the selectivity ratio amounted to 0.9 in data set [4] and 0.8 in data set [9]. Besides, the IC50 in [5] (setting [17]) stood at 124 ± 6 µM; in data set [10] (setting [18]), 148 ± 10 µM.
Take `CCCC(=O)Oc1cc(C)ccc1C(C)C` [Derivative 5, thymyl butyrate]: the CC50 in data set [1] (J774.A1 macrophage cell line) is > 300 µM. For the same compound, the selectivity ratio in data set [4] and in data set [9] was > 1.4 in each case. The IC50 in [5] (setting [17]) is 150 to 250 µM; in data set [5] (setting [19]) it was 211 ± 7.3 µM; in data set [10] (setting [18]), 150 to 250 µM; in [10] (promastigotes, alamarBlue, 72 h at 26 °C, read-out: L. amazonensis Promastigote IC50), 216 ± 7.5 µM.
Take `Cc1ccc(C(C)C)c(OC(=O)CCC(=O)O)c1` [Derivative 6, thymyl hemisuccinate]: the IC50 in data set [5] (setting [17]) and in data set [10] (setting [18]) was > 350 µM each time.
Consider `Cc1ccc(C(C)C)c(OC(=O)c2ccccc2)c1` [Derivative 7, thymyl benzoate], for which, in data set [1] (J774.A1 macrophage cell line), the CC50 was > 300 µM. The selectivity ratio in [4] was > 4.5; in data set [9] it was > 5.4. In addition, the IC50 was 66 ± 1.7 µM in [5] (setting [17]) and 56 ± 5.6 µM in data set [10] (setting [18]). Moreover, the “EC50 against promastigote stage” value in [13] was 8.67 µg/mL (≈ 34.1 µM). The “EC50 against amastigote stage” value in [14] was 15.09 µg/mL (≈ 59.3 µM).
On to `Cc1ccc(C(C)C)c(OC(=O)c2ccc([N+](=O)[O-])cc2)c1` [Derivative 8, thymyl-4-nitrobenzoate], for which, in [1] (J774.A1 macrophage cell line), the CC50 was > 300 µM. Moreover, the selectivity ratio was > 6.8 in data set [4] and > 3.9 in data set [9]. In addition, the figures for the half-maximal inhibitory concentration (IC50) in data set [5] (setting [17]), in data set [5] (setting [19]) and in data set [10] (setting [18]) were 50 to 150 µM, 44.4 ± 2.5 µM and 76.4 ± 6.2 µM, respectively.
Turning to `Cc1ccc(C(C)C)c(OC(=O)Oc2ccc([N+](=O)[O-])cc2)c1` [Derivative 11, thymyl-4-nitrophenylcarbonate], the CC50 in [1] (J774.A1 macrophage cell line) was > 300 µM. Also, the selectivity ratio was > 4.5 in [4] and > 5.2 in data set [9]. Besides, the IC50 in [5] (setting [17]) was determined as 66.9 ± 3.8 µM; in data set [10] (setting [18]), 56.9 ± 7.2 µM.
On to `Cc1ccc(C(C)C)c(OC(=O)N(C)C)c1` [Derivative 12, thymyl N,N-dimethyl carbamate], for which the 50% cytotoxic concentration (CC50) in [1] (murine macrophages J774.A1) is > 300 µM. For the same compound, the results for the selectivity ratio in [4] and in data set [9] were > 1.9 and > 1.3, respectively. The IC50 in [5] (Trypanosoma cruzi, 72 h, read-out: T. cruzi Epimastigote IC50, epimastigotes, alamarBlue, 72 h at 26 °C) was 150 to 250 µM; in data set [5] (read-out: T. cruzi Epimastigote IC50, epimastigotes, alamarBlue, 72 h at 26 °C), 158 ± 2.9 µM; in data set [10] (Leishmania amazonensis, 72 h, read-out: L. amazonensis Promastigote IC50, promastigotes, alamarBlue, 72 h at 26 °C) it was 150 to 250 µM; in data set [10] (read-out: L. amazonensis Promastigote IC50, promastigotes, alamarBlue, 72 h at 26 °C), 229 ± 21.4 µM.
`CCCCCCCCCCCCCCCCOP(=O)([O-])OCC[N+](C)(C)C` [M, Miltefosine, reference compound] gave a CC50 in data set [1] (J774.A1 macrophage cell line) of 72.2 ± 8.9 µM. The selectivity ratio in data set [9] was determined as 11.1; in [15] it was 23.3. The IC50 in data set [10] (setting [18]) amounted to 6.5 ± 0.3 µM; in [16] it was 3.1 ± 0.3 µM.
